Measurements taken from US20240262795A1, “PYRAZINE COMPOUNDS AS INHIBITORS OF FLT3” (Biomea Fusion, Inc., priority 2021, published 2024).
pIC50: −log10 of the molar value. Read-outs that look alike come from different tables or passages of the source.

Assays:
MOLM-13 = experiment: Proliferation inhibition, CellTiter-Glo, MOLM-13; format: cell-based, human; settings: for pIC50: Homo sapiens, MOLM-13 cells
Procedure, shortened: (§1)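 About 10,000 cells per well in RPMI-1640 with 10% FBS. Compounds added 2 h after seeding at eight concentrations in duplicate (0.2% DMSO as 100% proliferation), then incubated ~96 h at 37° C, 5% CO2. ATP measured by CellTiter-Glo luminescence; IC50 from four-parameter logistic fit.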

MV-4-11 = experiment: Proliferation inhibition, CellTiter-Glo, MV-4-11; format: cell-based, human; settings: for pIC50: Homo sapiens
Procedure, shortened: as §1

K-562 = experiment: Proliferation inhibition, CellTiter-Glo, K-562; format: cell-based, human; settings: for pIC50: Homo sapiens
Procedure, shortened: as §1

WT FLT3 = target: T1, WT FLT3 (Homo sapiens, UniProt P36888); experiment: WT FLT3 Lance Ultra TR-FRET kinase assay; format: biochemical
T1 construct: purchased Invitrogen PR4666C
T1 sequence (P36888 564-993 limits assumed): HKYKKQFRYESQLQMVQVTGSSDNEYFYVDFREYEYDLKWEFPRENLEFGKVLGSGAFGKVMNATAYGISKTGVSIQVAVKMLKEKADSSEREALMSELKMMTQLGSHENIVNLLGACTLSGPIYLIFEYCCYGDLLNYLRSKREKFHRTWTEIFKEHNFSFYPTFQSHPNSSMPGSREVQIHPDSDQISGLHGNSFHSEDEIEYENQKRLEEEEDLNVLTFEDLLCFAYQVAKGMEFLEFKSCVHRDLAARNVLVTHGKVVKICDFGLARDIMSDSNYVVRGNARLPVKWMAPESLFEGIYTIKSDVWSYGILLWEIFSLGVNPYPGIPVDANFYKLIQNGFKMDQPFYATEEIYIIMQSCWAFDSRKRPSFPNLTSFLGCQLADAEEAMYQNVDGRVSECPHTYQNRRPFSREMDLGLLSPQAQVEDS
Source text: (§2) High throughput 384-well Lance Ultra TR-FRET based kinase assays were established for the WT FLT3 and FLT3-ITD enzymes and employed a ULight-labeled peptide […] and FLT3 proteins labelled with Eu-conjugated antibody […] (WuXi Aptec). The principle of TR-FRET is based on transfer of energy between a donor and acceptor fluorophore that results when the fluorophores are within close proximity (˜100 Å) of each other. Recombinant WT FLT3 (#PR4666C, M.W. 48.6 kDa) was purchased from Invitrogen and FLT3-ITD (FLT3-ITD-W51, #F-12-12CG-10, M.W. 76 kDa) was purchased from Signalchem. Optimal assay conditions for the WT FLT3 enzyme assay were as follows: 0.5 nM FLT3 protein, 50 nM ULight-JAK-1 (Tyr1023) substrate peptide (PerkinElmer #TRF0121), 100 μM ATP, 60 min reaction time. Optimal assay conditions for the FLT3-ITD enzyme assay were as follows: 0.0625 nM FLT3-ITD protein, 50 nM ULight-JAK-1 (Tyr1023) substrate peptide, 50 μM ATP, 90 min reaction time. Briefly, 11 dose 3× serial dilutions were prepared for the test compounds and the reference compound and 100 nanoliters transferred to appropriate wells of 384-well assay plates. Five microliters of 2× enzyme/peptide were added into assay wells, assay plates centrifuged at 1000 rpm for about 30 seconds, sealed with sealing film and incubated for 30 min at 23° C. Assay buffer comprised 50 mM HEPES (pH 7.5), 1 mM EDTA, 0.01% Brij-35, 10 mM MgCl2 and 2 mM DTT. Next 5 μl of a 2× ATP mixture were added into the assay wells and the plates centrifuged at 1000 rpm about 30 seconds, sealed with sealing film and incubated for 23° C. for appropriate duration. Following assay incubation (30 min for WT FLT3 and 60 min for FLT3-ITD) 10 μl 2× Detection Mixture (Eu-W1024 Anti-phosphotyrosine (PT66) 2 nM and EDTA 10 mM) was added to assay wells, assay plates centrifuge at 1000 rpm about 1 minutes, sealed with sealing film and incubated at 23° C. for 60 minutes. Assay plates were read on a Perkin Elmer Envision reader at two wavelengths (665/615) and the ratio of […] calculated.
(§3) Data was expressed as % of inhibition relative to the vehicle control and calculated as follows:
(§4) Results were analyzed by XLFIT5 as % inhibition vs. log [compound concentration] and IC50 values were calculated by non-linear regression using four parameter-logistic equation. Fit=(A+((B−A)/(1+((C/x)^D)))). Res=(y−fit).

FLT3-ITD = target: T2, FLT3-ITD (Homo sapiens, UniProt P36888, DUP595-601); experiment: FLT3-ITD Lance Ultra TR-FRET kinase assay; format: biochemical
T2 construct: purchased Signalchem F-12-12CG-10
T2 sequence (P36888 with tags, fused parts or gaps DUP595-601 limits assumed): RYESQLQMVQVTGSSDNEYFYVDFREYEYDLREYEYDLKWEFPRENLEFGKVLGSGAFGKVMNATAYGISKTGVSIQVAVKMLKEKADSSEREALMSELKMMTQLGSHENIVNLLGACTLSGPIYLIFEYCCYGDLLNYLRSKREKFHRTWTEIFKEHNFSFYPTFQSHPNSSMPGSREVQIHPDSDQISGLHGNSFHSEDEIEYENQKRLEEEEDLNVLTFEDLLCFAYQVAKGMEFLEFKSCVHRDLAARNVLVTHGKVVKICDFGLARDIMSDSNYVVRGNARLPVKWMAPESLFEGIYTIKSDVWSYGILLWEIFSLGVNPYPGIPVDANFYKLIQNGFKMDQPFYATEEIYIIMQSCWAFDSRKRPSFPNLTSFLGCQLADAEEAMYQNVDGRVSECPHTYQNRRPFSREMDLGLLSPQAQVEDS
Source text: as §2, §3, §4

[1] = 96 h, IC50 (4 days), CellTiter-Glo, read-out: MOLM-13 IC50
[2] = MV4-11, 96 h, MV-4:11 cells, IC50 (4 days), CellTiter-Glo, read-out: MV-4:11 IC50
[3] = K562, 96 h, K-562 cells, IC50 (4 days), CellTiter-Glo, read-out: K-562 IC50

Row | pIC50 (MOLM-13; [1]) | pIC50 (MV-4-11; [2]) | pIC50 (K-562; [3]) | pIC50 (WT FLT3) | pIC50 (FLT3-ITD) | pIC50 (MOLM-13; read-out: IC50 in MOLM-13 cells) | pIC50 (MV-4-11; MV4-11 cells, read-out: IC50 in MV4-11 cells) | pIC50 (K-562; K562 cells, read-out: IC50 in K562 cells) | Structure (SMILES) | Ymax in MOLM-13 cells (MOLM-13) | Ymax in MV4-11 cells (MV-4-11; MV4-11 cells) | Ymax in K562 cells (K-562; K562 cells)
1 | 8.00 to 9.00 | > 9.00 | < 6.30 | 9.00 to 9.30 | 9.00 to 9.30 | – | – | – | Cc1nc(C(N)=O)c(Nc2cc(F)cc(CCNC(=O)[C@H](C)N(C)C(=O)/C=C/CN(C)C)c2)nc1C1CC1 [Compound 254, (S,E)-5-cyclopropyl-3-((3-(2-(2-(4-(dimethylamino)-N-methylbut-2-enamido)propanamido)ethyl)-5-fluorophenyl)amino)-6-methylpyrazine-2-carboxamide] | – | – | –
2 | 8.00 to 9.00 | > 9.00 | < 6.30 | 9.00 to 9.30 | 9.30 to 9.70 | – | – | – | CCc1nc(C(N)=O)c(Nc2cc(F)cc(CCNC(=O)[C@H](C)N(C)C(=O)/C=C/CN(C)C)c2)nc1C1CC1 [Compound 159, (S,E)-5-cyclopropyl-3-((3-(2-(2-(4-(dimethylamino)-N-methylbut-2-enamido)propanamido)ethyl)-5-fluorophenyl)amino)-6-ethylpyrazine-2-carboxamide] | – | – | –
3 | 8.00 to 9.00 | > 9.00 | < 6.30 | 9.00 to 9.30 | 9.30 to 9.70 | – | – | – | CCN(C)c1nc(Nc2cccc(CCNC(=O)[C@H](C)N(C)C(=O)/C=C/CN(C)C)c2)c(C(N)=O)nc1C [Compound 253, (S,E)-3-((3-(2-(2-(4-(dimethylamino)-N-methylbut-2-enamido)propanamido)ethyl)phenyl)amino)-5-(ethyl(methyl)amino)-6-methylpyrazine-2-carboxamide] | – | – | –
4 | > 9.00 | 8.00 to 9.00 | < 6.30 | 9.30 to 9.70 | ≥ 10.00 | – | – | – | C=CC(=O)N(C)CC(=O)NCCc1cccc(Nc2nc(N(C)CC)c(CC)nc2C(N)=O)c1 [Compound 511, 6-ethyl-5-(ethyl(methyl)amino)-3-((3-(2-(2-(N-methylacrylamido)acetamido)ethyl)phenyl)amino) pyrazine-2-carboxamide] | – | – | –
5 | > 9.00 | > 9.00 | < 6.30 | 9.30 to 9.70 | 9.30 to 9.70 | – | – | – | CCc1nc(C(N)=O)c(Nc2cccc(CCNC(=O)[C@H](C)N(C)C(=O)/C=C/CN3CCC3)c2)nc1N(C)C [Compound 156, (S,E)-3-((3-(2-(2-(4-(azetidin-1-yl)-N-methylbut-2-enamido)propanamido)ethyl)phenyl)amino)-5-(dimethylamino)-6-ethylpyrazine-2-carboxamide] | – | – | –
6 | 8.00 to 9.00 | > 9.00 | < 6.30 | 9.00 to 9.30 | 9.30 to 9.70 | – | – | – | CCc1nc(C(N)=O)c(Nc2ccnc(CCNC(=O)CN(C)C(=O)/C=C/CN(C)C)c2)nc1N(C)CC [Compound 606, (E)-3-((2-(2-(2-(4-(dimethylamino)-N-methylbut-2-enamido)acetamido)ethyl)pyridin-4-yl)amino)-6-ethyl-5-(ethyl(methyl)amino)pyrazine-2-carboxamide] | – | – | –
7 | 8.00 to 9.00 | 8.00 to 9.00 | < 6.30 | < 9.00 | < 9.00 | – | – | – | Cc1nc(C(N)=O)c(Nc2cccc(CCNC(=O)[C@H](C)N(C)C(=O)/C=C/CN(C)C)c2)nc1C(C)C [Compound 305, (S,E)-3-((3-(2-(2-(4-(dimethylamino)-N-methylbut-2-enamido)propanamido)ethyl)phenyl)amino)-5-isopropyl-6-methylpyrazine-2-carboxamide] | – | – | –
8 | 8.00 to 9.00 | 8.00 to 9.00 | < 6.30 | < 9.00 | 9.30 to 9.70 | – | – | – | Cc1nc(C(N)=O)c(Nc2cccc(CCNC(=O)CN(C)C(=O)/C=C/CN(C)C)c2)nc1C1CC1 [Compound 241, (E)-5-cyclopropyl-3-((3-(2-(2-(4-(dimethylamino)-N-methylbut-2-enamido)acetamido)ethyl)phenyl)amino)-6-methylpyrazine-2-carboxamide] | – | – | –
9 | 7.00 to 8.00 | 8.00 to 9.00 | 7.00 to 8.00 | 9.00 to 9.30 | 9.00 to 9.30 | 7.72 | 8.30 | 7.36 | C=CC(=O)Nc1cc(Nc2nc(NC3CCOCC3)c(CC)nc2C(N)=O)ccc1N1CCC(N2CCN(C)CC2)CC1 [Compound C-2, reference compound] | 98.6% | 99.1% | 95.8%
10 | 8.00 to 9.00 | 8.00 to 9.00 | < 6.30 | < 9.00 | 9.00 to 9.30 | – | – | – | C=CC(=O)N(C)[C@@H](C)C(=O)NCCc1cccc(Nc2nc(N(C)C(C)C)c(CC)nc2C(N)=O)c1 [Compound 315, (S)-6-ethyl-5-(isopropyl(methyl)amino)-3-((3-(2-(2-(N-methylacrylamido)propanamido)ethyl)phenyl)amino)pyrazine-2-carboxamide] | – | – | –
11 | > 9.00 | > 9.00 | < 6.30 | 9.00 to 9.30 | 9.00 to 9.30 | – | – | – | CCc1nc(C(N)=O)c(Nc2cccc(CCNC(=O)[C@H](C)NC(=O)/C=C/CN(C)C)c2)nc1NC(C)C [Compound 501, (S, E)-3-((3-(2-(2-(4-(dimethylamino)but-2-enamido)propanamido)ethyl)phenyl)amino)-6-ethyl-5-(isopropylamino) pyrazine-2-carboxamide] | – | – | –
12 | 7.00 to 8.00 | 8.00 to 9.00 | < 6.30 | 9.00 to 9.30 | 9.70 to 10.00 | – | – | – | Cc1nc(C(N)=O)c(Nc2cc(F)cc(CCNC(=O)[C@H](C)N(C)C(=O)/C=C/CN(C)C)c2)nc1N(C)C [Compound 239, 5-(dimethylamino)-3-[3-[2-[[(2S)-2-[[(E)-4-(dimethylamino)but-2-enoyl]-methyl-amino]propanoyl]amino]ethyl]-5-fluoro-anilino]-6-methyl-pyrazine-2-carboxamide] | – | – | –
13 | > 9.00 | 8.00 to 9.00 | < 6.30 | 9.30 to 9.70 | 9.00 to 9.30 | – | – | – | CCc1nc(C(N)=O)c(Nc2cccc([C@@H](C)CNC(=O)CN(C)C(=O)/C=C/CN3CCC3)c2)nc1C(C)C [Compound 509, (R,E)-3-((3-(1-(2-(4-(azetidin-1-yl)-N-methylbut-2-enamido)acetamido)propan-2-yl)phenyl)amino)-6-ethyl-5-isopropylpyrazine-2-carboxamide] | – | – | –
